Measurements published in patent US20090068113A1, “AMPHIPHILIC SQUARAINE DYES, PROCESS FOR PREPARATION THEREOF AND USE THEREOF” (COUNCIL OF SCIENTIFIC AND INDUSTRIAL RESEARCH, priority 2005, published 2009).

Legend:
Assay type in all cases: physicochemical
[1] = Summary of photophysical properties in the presence of membrane mimics and drug carriers; conditions: presence of membrane mimics and drug carriers versus aqueous media
Excerpt: The main advantages of these systems include: • 1. Squaraines dyes represented by formulae 1, 2 and 3 are novel and pure single substances. • 2. Their synthetic methodology is very economical. • 3. […] They can be used for photodynamic applications such as sterilization of fluids etc. • 7. The squaraine-based dyes can be used as near infrared fluorescent probes for protein labeling. • 8. The squaraine dyes of the general formula 1 can be used as near infrared fluorescent labels in immunoassays. • 9. They can be used for the detection of biologically important metal ions under physiological conditions. • 10. These novel dyes can be used as near-infrared fluorescence sensors in biological, biochemical and industrial applications.

[2] = Photophysical properties and fluorescence lifetimes in the presence of neutral micelle Triton X-100
Excerpt: (§1) Study of the stability and photophysical properties of a photosensitizer under physiological conditions is important during its evaluation for various in vitro and in vivo applications. Particularly, the influence of membrane mimics like cetyltrimethylammonium bromide and carrier systems like β-cyclodextrin will provide information on the sensitizer behaviour under physiological conditions. Moreover, such studies are also useful to clarify points such as whether a particular dye forms aggregates or not and whether it generates cytotoxic agents or not in such environments. These media are unique in their properties, since β-CD forms inclusion complexes with the guest molecules, while others form micellar structures thereby provide in them both the hydrophobic and hydrophilic environment.
(§2) FIGS. 3, 4, and 5 show the emission spectra of dye of the general formula 1, wherein, R^1=—(CH2—CH2—O)n—CH3, n=4 and R^2=—CH3 in the presence of cationic micelle CTAB, anionic micelle SDS and neutral micelle Triton X-100, respectively. As the concentration of micelles increases, the fluorescence intensity of the dye increases showing an effective interaction between the micelles and the dye. To have a better understanding of the effect of micellar media we have analyzed the picosecond time-resolved fluorescence lifetimes of dyes of the general formula 1. […] Tables 2, 3 and 4
(§3) lists the absorption and emission maxima, fluorescence quantum yield and lifetimes of dyes of the general formula 1 wherein, R^1=—(CH2—CH2—O)n—CH3, n=4 and R^2=—CH3, general formula 2, wherein R^1, R^2=—(CH2—CH2—O)n—CH3, n=4 and general formula 3, wherein R^1=—(CH2)n—CO2X, n=3, X=H, and R^2=—CH3, in the absence and presence of cationic micelle CTAB, anionic micelle SDS and neutral micelle Triton X-100.

[3] = Photophysical properties and picosecond time-resolved fluorescence lifetimes in the presence of cationic micelle CTAB; conditions: for Abs λmax / Ems λmax / Φf: In the presence of CTAB
Excerpt: as §1, §2, §3

[4] = Absorption, emission and fluorescence quantum yield in aqueous and alcoholic solvents
Excerpt: The absorption and emission maxima, and fluorescence quantum yields of these dyes in aqueous and alcoholic solvents are listed in Table 1. The long wavelength absorption and emission maxima and good fluorescence quantum yields in aqueous media make these dyes ideal candidates for application as fluorescence probes.

[5] = Photophysical properties and fluorescence lifetimes in the presence of β-CD; conditions: for Abs λmax / Ems λmax / Φf: In the presence of β-CD
Excerpt: as §1
Table 5 summarises the absorption and emission maxima, fluorescence quantum yields and lifetimes of squaraine dyes of the general formula 1 in the presence of β-CD.

[6] = as above; conditions: in the absence of β-CD
[7] = Photophysical properties and fluorescence lifetimes in the presence of anionic micelle SDS
Excerpt: as §1, §2, §3

[8] = In the presence of Triton X-100

## COCCOCCOCCOCCN(C)c1ccc(C2=C([O-])C(=C3C=CC(=[N+](C)CCOCCOCCOCCOC)C=C3)C2=O)cc1 [Formula 1]
[1]
  increase of emission quantum yield: ~10 fold
[2]; [8]
  Abs λmax: 645 nm
  Ems λmax: 669 nm
  Φf: 0.12
[2]; Triton X-100 0 to 118 mM, excitation 600 nm
  fluorescence intensity as the concentration of micelles increases: increases
[3]; CTAB 0 to 129 mM, excitation 600 nm
  fluorescence intensity as the concentration of micelles increases: increases
[3]
  Abs λmax: 642 nm
  Ems λmax: 663 nm
  Φf: 0.12
[4]; 10% v/v Ethanol/water
  Φf (fluorescence quantum yield): 0.018
  λmax, nm abs: 645 nm
  λmax, nm ems: 674 nm
[4]; Ethanol
  Φf (fluorescence quantum yield): 0.19
  λmax, nm abs: 637 nm
  λmax, nm ems: 660 nm
[4]; Water
  Φf (fluorescence quantum yield): 0.013
  λmax, nm abs: 644 nm
  λmax, nm ems: 671 nm
[5]
  Abs λmax: 644 nm
  Ems λmax: 663 nm
  Φf: 0.10
[5]; in the presence of β-CD
  form of fluorescence decay: Biexponential decay
[6]
  form of fluorescence decay: mono exponential decay
[7]; In the presence of SDS
  Abs λmax: 640 nm
  Ems λmax: 663 nm
  Lifetimes: 590 ps
  Φf: 0.15
[7]; SDS 0 to 21 mM, excitation 600 nm
  fluorescence intensity as the concentration of micelles increases: increases

## COCCOCCOCCOCCN(CCOCCOCCOCCOC)c1ccc(C2=C([O-])C(=C3C=CC(=[N+](CCOCCOCCOCCOC)CCOCCOCCOCCOC)C=C3)C2=O)cc1 [Formula 2]
[1]
  increase of emission quantum yield: ~10 fold
[2]; [8]
  Abs λmax: 646 nm
  Ems λmax: 671 nm
  Relative contribution of lifetime component: (7%)
  Φf: 0.14
[3]
  Abs λmax: 644 nm
  Ems λmax: 667 nm
  Φf: 0.096
[4]; 10% v/v Ethanol/water
  Φf (fluorescence quantum yield): 0.026
  λmax, nm abs: 646 nm
  λmax, nm ems: 675 nm
[4]; Ethanol
  Φf (fluorescence quantum yield): 0.21
  λmax, nm abs: 638 nm
  λmax, nm ems: 662 nm
[4]; Water
  Φf (fluorescence quantum yield): 0.021
  λmax, nm abs: 646 nm
  λmax, nm ems: 676 nm
[5]
  Abs λmax: 645 nm
  Ems λmax: 668 nm
  Φf: 0.07
[7]; In the presence of SDS
  Abs λmax: 643 nm
  Ems λmax: 668 nm
  Φf: 0.16

## CN(CCCC(=O)O)c1ccc(C2=C([O-])C(=C3C=CC(=[N+](C)CCCC(=O)O)C=C3)C2=O)cc1 [Formula 3]
[1]
  increase of emission quantum yield: ~10 fold
[2]; [8]
  Abs λmax: 649 nm
  Ems λmax: 672 nm
  Φf: 0.12
[3]
  Abs λmax: 644 nm
  Ems λmax: 667 nm
  Φf: 0.14
[4]; 10% v/v Ethanol/water
  Φf (fluorescence quantum yield): 0.015
  λmax, nm abs: 647 nm
  λmax, nm ems: 673 nm
[4]; Ethanol
  Φf (fluorescence quantum yield): 0.18
  λmax, nm abs: 636 nm
  λmax, nm ems: 662 nm
[4]; Water
  Φf (fluorescence quantum yield): 0.007
  λmax, nm abs: 645 nm
  λmax, nm ems: 673 nm
[5]
  Abs λmax: 649 nm
  Ems λmax: 666 nm
  Φf: 0.19
